# Experiments:
# [1] = test system: HCT-116; test: Antiproliferative activity against human HCT-116 cells assessed as cell growth inhibition by sulforhodamine B assay; assay type: functional, cell-based
# [2] = target: Voltage-gated inwardly rectifying potassium channel KCNH2 (Homo sapiens, UniProt Q12809); test: Inhibition of hERG channel; assay type: toxicity
# [3] = Half life in Sprague-Dawley rat at 1 mg/kg, iv; assay type: ADME, organism-based; conditions: in vivo
# [4] = AUClast in Sprague-Dawley rat at 1 mg/kg, iv; assay type: ADME, organism-based; design: time 0 - last, dose 1 mg/kg, route iv; conditions: in vivo
# [5] = Observed AUCinfinity in Sprague-Dawley rat at 1 mg/kg, iv; assay type: ADME, organism-based; design: time infinity, dose 1 mg/kg, route iv; conditions: in vivo
# [6] = Clearance in Sprague-Dawley rat at 1 mg/kg, iv; assay type: ADME, organism-based; conditions: in vivo
# [7] = Observed MRTinfinity in Sprague-Dawley rat at 1 mg/kg, iv; assay type: ADME, organism-based; conditions: in vivo
# [8] = Volume of distribution at steady state in Sprague-Dawley rat at 1 mg/kg, iv; assay type: ADME, organism-based; conditions: in vivo, read-out: Vdss
# [9] = target: T1, Serine/threonine-protein kinase TAO1 (Homo sapiens) (UniProt Q7L7X3); test: Inhibition of human partial length wild type TAOK1 at 1 uM by Kinomescan method relative to control
# T1 sequence (whole entry): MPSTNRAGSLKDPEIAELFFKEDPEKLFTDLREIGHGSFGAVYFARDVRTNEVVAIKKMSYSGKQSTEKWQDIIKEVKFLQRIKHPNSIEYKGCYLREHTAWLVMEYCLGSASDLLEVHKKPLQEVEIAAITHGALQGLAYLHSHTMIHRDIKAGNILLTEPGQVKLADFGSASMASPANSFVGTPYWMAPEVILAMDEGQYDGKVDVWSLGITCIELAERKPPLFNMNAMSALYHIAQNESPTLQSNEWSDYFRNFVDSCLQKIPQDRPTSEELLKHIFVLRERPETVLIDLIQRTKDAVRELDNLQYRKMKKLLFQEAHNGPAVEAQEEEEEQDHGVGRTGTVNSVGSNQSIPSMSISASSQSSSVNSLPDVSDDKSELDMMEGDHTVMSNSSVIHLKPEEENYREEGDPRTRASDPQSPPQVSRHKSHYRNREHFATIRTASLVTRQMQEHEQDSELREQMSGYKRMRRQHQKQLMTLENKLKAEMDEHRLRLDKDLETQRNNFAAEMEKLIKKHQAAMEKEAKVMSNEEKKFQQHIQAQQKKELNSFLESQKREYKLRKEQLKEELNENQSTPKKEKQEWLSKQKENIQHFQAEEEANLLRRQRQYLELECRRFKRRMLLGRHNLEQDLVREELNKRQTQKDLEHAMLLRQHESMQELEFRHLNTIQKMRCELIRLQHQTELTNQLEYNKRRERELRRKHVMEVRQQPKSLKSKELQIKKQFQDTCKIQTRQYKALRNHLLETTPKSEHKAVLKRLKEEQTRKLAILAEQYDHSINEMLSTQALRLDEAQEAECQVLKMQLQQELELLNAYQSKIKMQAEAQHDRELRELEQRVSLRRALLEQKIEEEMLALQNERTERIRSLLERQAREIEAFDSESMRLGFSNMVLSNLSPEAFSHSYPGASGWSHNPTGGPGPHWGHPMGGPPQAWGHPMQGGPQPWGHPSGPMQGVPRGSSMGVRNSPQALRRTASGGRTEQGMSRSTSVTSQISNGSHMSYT
# [10] = target: T1, Serine/threonine-protein kinase TAO1 (Homo sapiens); test: Inhibition of human partial length wild type TAOK1 by measuring selectivity score at 1 uM by Kinomescan method relative to control
# [11] = Inhibition of UAE (unknown origin) […] assessed as decrease in UbcH10-Ub adduct formation incubated for 2 hrs in presence of L-glutathione and ATP by HTRF assay; design: species or system Homo sapiens
# [12] = test system: MV4-11; test: Antiproliferative activity against human MV4-11 cells assessed as cell growth inhibition measured after 72 hrs by SRB assay; assay type: functional, cell-based; conditions: MV4-11, 72 h
# [13] = test system: THP-1; test: Antiproliferative activity against human THP-1 cells assessed as cell growth inhibition measured after 72 hrs by SRB assay; assay type: functional, cell-based; conditions: THP-1, 72 h
# [14] = test system: Jurkat; test: Antiproliferative activity against human Jurkat cells assessed as cell growth inhibition measured after 72 hrs by SRB assay; assay type: functional, cell-based
# [15] = test system: HCT-116; test: Antiproliferative activity against human HCT-116 cells assessed as cell growth inhibition measured after 72 hrs by SRB assay; assay type: functional, cell-based; conditions: HCT-116, 72 h
# [16] = test system: HuTu80; test: Antiproliferative activity against human HuTu80 cells assessed as cell growth inhibition measured after 72 hrs by SRB assay; assay type: functional, cell-based; conditions: HuTu80, 72 h
# [17] = test system: RKO; test: Antiproliferative activity against human RKO cells assessed as cell growth inhibition measured after 72 hrs by SRB assay; assay type: functional, cell-based
# [18] = test system: HT-29; test: Antiproliferative activity against human HT-29 cells assessed as cell growth inhibition measured after 72 hrs by SRB assay; assay type: functional, cell-based; conditions: HT-29, 72 h
# [19] = test system: LNCaP-Clone-FGC; test: Antiproliferative activity against human LNCaP-Clone-FGC cells assessed as cell growth inhibition measured after 72 hrs by SRB assay; assay type: functional, cell-based
# [20] = test system: DU-145; test: Antiproliferative activity against human DU-145 cells assessed as cell growth inhibition measured after 72 hrs by SRB assay; assay type: functional, cell-based; conditions: DU-145, 72 h
# [21] = test system: CAPAN-1; test: Antiproliferative activity against human CAPAN-1 cells assessed as cell growth inhibition measured after 72 hrs by SRB assay; assay type: functional, cell-based; conditions: CAPAN-1, 72 h
# [22] = test system: HCT-116; test: Antitumor activity against human HCT-116 cells xenografted in nude mouse assessed as reduction in tumor growth at 60 mg/kg, sc bid administered at 5 on/5 off/8 for 18 days; assay type: functional; conditions: time 18 day
# [23] = Toxicity in nude mouse xenografted with human HCT-116 cells assessed as effect on body weight at 60 mg/kg, sc bid administered at 5 on/5 off/8 for 18 days; assay type: organism-based; conditions: in vivo, 432 h, time 18 day
# Voltage-gated inwardly rectifying potassium channel KCNH2, sequence (Q12809 whole entry): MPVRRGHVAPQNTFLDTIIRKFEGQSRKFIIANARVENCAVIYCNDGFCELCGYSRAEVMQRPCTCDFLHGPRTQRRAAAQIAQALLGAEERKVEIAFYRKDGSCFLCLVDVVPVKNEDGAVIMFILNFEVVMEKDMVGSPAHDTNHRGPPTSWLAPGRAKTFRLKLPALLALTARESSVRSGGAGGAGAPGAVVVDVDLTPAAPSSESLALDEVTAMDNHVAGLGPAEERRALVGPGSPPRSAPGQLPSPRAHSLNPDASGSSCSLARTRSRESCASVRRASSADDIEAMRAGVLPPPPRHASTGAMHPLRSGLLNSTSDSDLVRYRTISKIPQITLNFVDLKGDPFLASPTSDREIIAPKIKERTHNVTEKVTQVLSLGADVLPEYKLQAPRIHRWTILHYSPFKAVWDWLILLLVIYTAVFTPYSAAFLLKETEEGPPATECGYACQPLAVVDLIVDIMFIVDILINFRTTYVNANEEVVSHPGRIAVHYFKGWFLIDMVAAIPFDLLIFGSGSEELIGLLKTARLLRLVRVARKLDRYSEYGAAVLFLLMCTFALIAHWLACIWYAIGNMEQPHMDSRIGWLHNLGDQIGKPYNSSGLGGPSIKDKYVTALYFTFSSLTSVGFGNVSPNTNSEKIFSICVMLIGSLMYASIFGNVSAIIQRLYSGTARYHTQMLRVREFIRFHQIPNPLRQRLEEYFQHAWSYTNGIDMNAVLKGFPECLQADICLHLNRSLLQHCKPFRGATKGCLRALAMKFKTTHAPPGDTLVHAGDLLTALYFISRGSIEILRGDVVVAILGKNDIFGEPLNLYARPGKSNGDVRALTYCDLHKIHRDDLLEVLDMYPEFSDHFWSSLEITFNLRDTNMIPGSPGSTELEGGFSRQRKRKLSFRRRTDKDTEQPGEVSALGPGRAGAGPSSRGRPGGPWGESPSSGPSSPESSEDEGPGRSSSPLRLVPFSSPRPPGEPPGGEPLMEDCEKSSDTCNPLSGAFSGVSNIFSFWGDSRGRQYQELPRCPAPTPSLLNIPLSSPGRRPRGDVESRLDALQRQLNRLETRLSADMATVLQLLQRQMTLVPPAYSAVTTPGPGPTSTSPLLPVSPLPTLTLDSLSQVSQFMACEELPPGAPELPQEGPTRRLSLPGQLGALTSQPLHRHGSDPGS
compound,measurement,setting,value
NS(=O)(=O)OC[C@@H]1C[C@@H](n2ccc3c(N[C@H]4CCc5ccccc54)ncnc32)C[C@@H]1O [PEVONEDISTAT],IC50,[1],33.9 nM
same,IC50,[2],> 40 µM
same,half-life,[3],81.6 min
same,AUC(0-t),[4],1330 ng·h/mL
same,AUC(0-inf),[5],1340 ng·h/mL
same,clearance,[6],16.5 mL/min/kg
same,MRT inf,[7],1.9 h
same,Vd,[8],1.63 L/kg
same,inhibition,[9],35%
same,Activity,[10],0.002
same,IC50,[11],3.72 nM
same,IC50,[12],107 nM
same,IC50,[13],115 nM
same,IC50,[14],152 nM
same,IC50,[15],36.2 nM
same,IC50,[16],42.6 nM
same,IC50,[17],166 nM
same,IC50,[18],484 nM
same,IC50,[19],64.6 nM
same,IC50,[20],201 nM
same,IC50,[21],101 nM
same,T/C,[22],0.1
same,Activity,[23],Non-Toxic

# Source: ChEMBL document CHEMBL5149982, “Development of Potent NEDD8-Activating Enzyme Inhibitors Bearing a Pyrimidotriazole Scaffold” (J Med Chem, 2021)
